Assay results as given in patent publication US12662451B2, “Chemical compounds and uses thereof” (GLAXOSMITHKLINE INTELLECTUAL PROPERTY (NO.4) LIMITED, priority 2023, dated 2026).

How the values were obtained:
[1] = target: T1, recombinant full-length WRN protein (1-1432) (Homo sapiens, UniProt Q14191); experiment: WRN unwinding activity, fluorogenic 384-well assay (Example A); format: biochemical; details: WRN unwinding activity, 4 hr; Table 2; read-out: 4 hr UNW pIC50 (converted)
T1 construct: recombinant full-length WRN protein (1-1432)
How it was run: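 Read-out is end-point unwinding of a fluorophore/quencher duplex (ex 525, em 598 nm) after 60 min with 200 μM ATP and 12 nM DNA (2× stocks), EDTA stop. Compound first sat 4 h with 200 pM WRN (2× stock) in pH 8.0 Tris buffer; four-parameter fit gives pIC50.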

[2] = test system: SW48 human colorectal cancer cells (MSI-H cancer cells); experiment: SW48 cell viability, CellTiter-Glo, 120 hours (Example B); details: Homo sapiens, SW48, 120 h, read-out: SW48 pCC50, SW48 cell viability, 120 hours incubation (converted); Table 2

T1 sequence (Q14191 whole entry): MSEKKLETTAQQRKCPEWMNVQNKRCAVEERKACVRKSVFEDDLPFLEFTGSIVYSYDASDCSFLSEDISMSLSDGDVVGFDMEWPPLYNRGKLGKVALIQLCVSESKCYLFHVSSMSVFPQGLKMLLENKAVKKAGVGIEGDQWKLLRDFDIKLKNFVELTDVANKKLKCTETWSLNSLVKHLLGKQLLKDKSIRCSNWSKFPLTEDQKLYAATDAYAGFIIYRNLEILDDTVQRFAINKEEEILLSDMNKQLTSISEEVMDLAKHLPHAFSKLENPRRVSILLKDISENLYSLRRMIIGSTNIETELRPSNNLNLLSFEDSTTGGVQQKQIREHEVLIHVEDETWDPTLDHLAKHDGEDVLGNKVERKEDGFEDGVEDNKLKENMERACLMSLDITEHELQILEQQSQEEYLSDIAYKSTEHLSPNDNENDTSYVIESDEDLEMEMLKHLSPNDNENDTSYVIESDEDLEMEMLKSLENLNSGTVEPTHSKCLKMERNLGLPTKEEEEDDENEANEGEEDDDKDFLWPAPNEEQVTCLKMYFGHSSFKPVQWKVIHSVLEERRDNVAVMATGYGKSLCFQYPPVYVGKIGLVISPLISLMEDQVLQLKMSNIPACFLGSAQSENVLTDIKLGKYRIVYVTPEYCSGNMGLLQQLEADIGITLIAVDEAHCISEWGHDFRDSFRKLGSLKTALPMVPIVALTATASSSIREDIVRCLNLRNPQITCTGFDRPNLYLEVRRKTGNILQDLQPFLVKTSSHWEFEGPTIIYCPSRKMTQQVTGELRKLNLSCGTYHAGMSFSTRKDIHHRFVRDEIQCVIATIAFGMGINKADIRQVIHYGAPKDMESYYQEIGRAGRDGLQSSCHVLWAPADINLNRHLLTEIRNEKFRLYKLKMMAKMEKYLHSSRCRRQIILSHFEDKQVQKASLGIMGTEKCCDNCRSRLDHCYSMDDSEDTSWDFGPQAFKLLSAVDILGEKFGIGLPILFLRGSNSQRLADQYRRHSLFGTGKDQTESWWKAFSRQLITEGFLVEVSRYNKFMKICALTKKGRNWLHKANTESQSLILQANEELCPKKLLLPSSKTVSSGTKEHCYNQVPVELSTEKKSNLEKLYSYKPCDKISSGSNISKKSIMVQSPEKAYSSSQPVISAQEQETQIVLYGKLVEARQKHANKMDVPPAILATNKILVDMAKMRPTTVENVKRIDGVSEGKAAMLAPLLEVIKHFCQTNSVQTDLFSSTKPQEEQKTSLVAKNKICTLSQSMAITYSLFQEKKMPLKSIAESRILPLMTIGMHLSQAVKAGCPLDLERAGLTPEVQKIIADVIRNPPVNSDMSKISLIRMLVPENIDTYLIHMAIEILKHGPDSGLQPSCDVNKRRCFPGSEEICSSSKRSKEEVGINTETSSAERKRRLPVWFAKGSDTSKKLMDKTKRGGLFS

| Structure (SMILES) | IC50 [1] | CC50 [2] |
| --- | --- | --- |
| O=C(O)[C@@H]1[C@@H](c2ccc(-c3cncnc3)cc2)CCC[C@H]1C(=O)Nc1ccc(C(F)(F)F)cc1F [Example 6, (1R,2R,6S)-2-((2-fluoro-4-(trifluoromethyl)phenyl)carbamoyl)-6-(4-(pyrimidin-5-yl)phenyl)cyclohexane-1-carboxylic acid] | 6.31 nM | 10000 nM |
| O=C(O)[C@@H]1[C@@H](c2ccc(-c3cncc(F)c3)cc2)CCC[C@H]1C(=O)Nc1ccc(C(F)(F)F)cc1F [Example 27, (1R,2R,6S)-2-((2-fluoro-4-(trifluoromethyl)phenyl)carbamoyl)-6-(4-(5-fluoropyridin-3-yl)phenyl)cyclohexane-1-carboxylic acid] | 12.6 nM | 3980 nM |
| Cc1nnc(-c2ccc([C@H]3CCC[C@@H](C(=O)Nc4ccc(C(F)(F)F)cc4F)[C@@H]3C(=O)O)cc2)s1 [Example 41, (1R,2R,6S)-2-((2-fluoro-4-(trifluoromethyl)phenyl)carbamoyl)-6-(4-(5-methyl-1,3,4-thiadiazol-2-yl)phenyl)cyclohexane-1-carboxylic acid] | 5.01 nM | 3980 nM |
| Cc1oncc1-c1ccc([C@H]2CCC[C@@H](C(=O)Nc3ccc(C(F)(F)F)cc3F)[C@@H]2C(=O)O)cc1 [Example 53, (1R,2R,6S)-2-((2-fluoro-4-(trifluoromethyl)phenyl)carbamoyl)-6-(4-(5-methylisoxazol-4-yl)phenyl)cyclohexane-1-carboxylic acid] | 15.8 nM | 7940 nM |
| N#Cc1ncc(-c2ccc([C@H]3CCC[C@@H](C(=O)Nc4ccc(C(F)(F)F)cc4F)[C@@H]3C(=O)O)cc2)cn1 [Example 54, (1R,2S,6R)-2-(4-(2-cyanopyrimidin-5-yl)phenyl)-6-((2-fluoro-4-(trifluoromethyl)phenyl)carbamoyl)cyclohexane-1-carboxylic acid] | 5.01 nM | 7940 nM |
| N#Cc1ccc(-c2ccc([C@H]3CCC[C@@H](C(=O)Nc4ccc(C(F)(F)F)cc4F)[C@@H]3C(=O)O)cc2)nn1 [Example 55, (1R,2S,6R)-2-(4-(6-cyanopyridazin-3-yl)phenyl)-6-((2-fluoro-4-(trifluoromethyl)phenyl)carbamoyl) cyclohexane-1-carboxylic acid] | 2.51 nM | 10000 nM |
| O=C(O)[C@@H]1[C@@H](c2ccc(C3=CCS(=O)(=O)C3)cc2)CCC[C@H]1C(=O)Nc1ccc(C(F)(F)F)cc1F [Example 58, (1R,2S,6R)-2-(4-(1,1-dioxido-2,5-dihydrothiophen-3-yl)phenyl)-6-((2-fluoro-4-(trifluoromethyl)phenyl)carbamoyl) cyclohexane-1-carboxylic acid] | 31.6 nM | 15800 nM |
| CN(c1ccc([C@H]2CCC[C@@H](C(=O)Nc3ccc(C(F)(F)F)cc3F)[C@@H]2C(=O)O)cc1)S(=O)(=O)c1ccc2occc2c1 [Example 93, (1R,2R,6S)-2-((2-fluoro-4-(trifluoromethyl)phenyl)carbamoyl)-6-(4-(N-methylbenzofuran-5-sulfonamido)phenyl)cyclohexane-1-carboxylic acid] | 2.51 nM | 2510 nM |
| CN(c1ccc([C@H]2CCC[C@@H](C(=O)Nc3ccc(C(F)(F)F)cc3F)[C@@H]2C(=O)O)cc1)S(=O)(=O)c1cccnc1 [Example 95, (1R,2R,6S)-2-((2-fluoro-4-(trifluoromethyl)phenyl)carbamoyl)-6-(4-(N-methylpyridine-3-sulfonamido)phenyl)cyclohexane-1-carboxylic acid] | 2.51 nM | 3160 nM |
| CN(c1ccc([C@H]2CCC[C@@H](C(=O)Nc3ccc(C(F)(F)F)cc3F)[C@@H]2C(=O)O)cc1)S(=O)(=O)c1ccc2oc(=O)n(C)c2c1 [Example 100, (1R,2S,6R)-2-(4-((N,3-dimethyl-2-oxo-2,3-dihydrobenzo[d]oxazole)-5-sulfonamido)phenyl)-6-((2-fluoro-4-(trifluoromethyl)phenyl)carbamoyl)cyclohexane-1-carboxylic acid] | 5.01 nM | 3980 nM |
| CN(c1ccc([C@H]2CCC[C@@H](C(=O)Nc3ccc(C(F)(F)F)cc3F)[C@@H]2C(=O)O)cc1)S(=O)(=O)c1ccc2nc(O)sc2c1 [Example 102, (1R,2R,6S)-2-((2-fluoro-4-(trifluoromethyl)phenyl)carbamoyl)-6-(4-((2-hydroxy-N-methylbenzo[d]thiazole)-6-sulfonamido)phenyl)cyclohexane-1-carboxylic acid] | 6.31 nM | 10000 nM |

Further lines, with some results ahead:

| IC50 [1] | Structure (SMILES) | CC50 [2] |
| --- | --- | --- |
| 3.98 nM | O=C(O)[C@@H]1[C@@H](c2ccc(-c3cccnc3)cc2)CCC[C@H]1C(=O)Nc1ccc(C(F)(F)F)cc1F [Example 8, (1R,2R,6S)-2-((2-fluoro-4-(trifluoromethyl)phenyl)carbamoyl)-6-(4-(pyridin-3-yl)phenyl)cyclohexane-1-carboxylic acid] | 7940 nM |
| 794 nM | O=C(O)[C@@H]1[C@@H](c2ccc(-c3ccco3)cc2)CCC[C@H]1C(=O)Nc1ccc(C(F)(F)F)cc1F [Example 9, (1R,2R,6S)-2-((2-fluoro-4-(trifluoromethyl)phenyl)carbamoyl)-6-(4-(furan-2-yl)phenyl)cyclohexane-1-carboxylic acid] | 25100 nM |
| 100 nM | O=C(O)[C@@H]1[C@@H](c2ccc(-c3ccoc3)cc2)CCC[C@H]1C(=O)Nc1ccc(C(F)(F)F)cc1F [Example 10, (1R,2R,6S)-2-((2-fluoro-4-(trifluoromethyl)phenyl)carbamoyl)-6-(4-(furan-3-yl)phenyl) cyclohexane-1-carboxylic acid] | 12600 nM |
| 158 nM | O=C(O)[C@@H]1[C@@H](c2ccc(-c3ccccc3)cc2)CCC[C@H]1C(=O)Nc1ccc(C(F)(F)F)cc1F [Example 11, (1R,2S,6R)-2-([1,1′-biphenyl]-4-yl)-6-((2-fluoro-4-(trifluoromethyl)phenyl)carbamoyl)cyclohexane-1-carboxylic acid] | 15800 nM |
| 158 nM | O=C(O)[C@@H]1[C@@H](c2ccc(-c3cccc4c3COC4)cc2)CCC[C@H]1C(=O)Nc1ccc(C(F)(F)F)cc1F [Example 15, (1R,2S,6R)-2-(4-(1,3-dihydroisobenzofuran-4-yl)phenyl)-6-((2-fluoro-4-(trifluoromethyl)phenyl)carbamoyl)cyclohexane-1-carboxylic acid] | 20000 nM |
| 5.01 nM | O=C(O)[C@@H]1[C@@H](c2ccc(-c3ccnnc3)cc2)CCC[C@H]1C(=O)Nc1ccc(C(F)(F)F)cc1F [Example 18, (1R,2R,6S)-2-((2-fluoro-4-(trifluoromethyl)phenyl)carbamoyl)-6-(4-(pyridazin-4-yl)phenyl)cyclohexane-1-carboxylic acid] | 12600 nM |
| 79.4 nM | Nc1ccccc1-c1ccc([C@H]2CCC[C@@H](C(=O)Nc3ccc(C(F)(F)F)cc3F)[C@@H]2C(=O)O)cc1 [Example 24, (1R,2S,6R)-2-(2′-amino-[1,1′-biphenyl]-4-yl)-6-((2-fluoro-4-(trifluoromethyl)phenyl)carbamoyl)cyclohexane-1-carboxylic acid] | 15800 nM |
| 1.58 nM | O=C(O)[C@@H]1[C@@H](c2ccc(-c3ccc(F)nc3)cc2)CCC[C@H]1C(=O)Nc1ccc(C(F)(F)F)cc1F [Example 25, (1R,2R,6S)-2-((2-fluoro-4-(trifluoromethyl)phenyl)carbamoyl)-6-(4-(6-fluoropyridin-3-yl)phenyl)cyclohexane-1-carboxylic acid] | 5010 nM |
| 100 nM | O=C(O)[C@@H]1[C@@H](c2ccc(-c3cccs3)cc2)CCC[C@H]1C(=O)Nc1ccc(C(F)(F)F)cc1F [Example 31, (1R,2R,6S)-2-((2-fluoro-4-(trifluoromethyl)phenyl)carbamoyl)-6-(4-(thiophen-2-yl)phenyl)cyclohexane-1-carboxylic acid] | 10000 nM |
| 79.4 nM | N#Cc1cscc1-c1ccc([C@H]2CCC[C@@H](C(=O)Nc3ccc(C(F)(F)F)cc3F)[C@@H]2C(=O)O)cc1 [Example 32, (1R,2S,6R)-2-(4-(4-cyanothiophen-3-yl)phenyl)-6-((2-fluoro-4-(trifluoromethyl)phenyl)carbamoyl)cyclohe xane-1-carboxylic acid] | 10000 nM |
| 2000 nM | O=C(O)[C@@H]1[C@@H](c2ccc(-c3cccc4sccc34)cc2)CCC[C@H]1C(=O)Nc1ccc(C(F)(F)F)cc1F [Example 35, (1R,2S,6R)-2-(4-(benzo[b]thiophen-4-yl)phenyl)-6-((2-fluoro-4-(trifluoromethyl)phenyl)carbamoyl) cyclohexane-1-carboxylic acid] | 6310 nM |
| 631 nM | O=C(O)[C@@H]1[C@@H](c2ccc(-c3nsc4ccccc34)cc2)CCC[C@H]1C(=O)Nc1ccc(C(F)(F)F)cc1F [Example 36, (1R,2S,6R)-2-(4-(benzo[d]isothiazol-3-yl)phenyl)-6-((2-fluoro-4-(trifluoromethyl)phenyl)carbamoyl)cyclohe xane-1-carboxylic acid] | 5010 nM |
| 2 nM | O=C(O)[C@@H]1[C@@H](c2ccc(-c3ccc(F)nn3)cc2)CCC[C@H]1C(=O)Nc1ccc(C(F)(F)F)cc1F [Example 37] | 2510 nM |
| 15.8 nM | O=C(O)[C@@H]1[C@@H](c2ccc(-c3cnoc3)cc2)CCC[C@H]1C(=O)Nc1ccc(C(F)(F)F)cc1F [Example 48, (1R,2R,6S)-2-((2-fluoro-4-(trifluoromethyl)phenyl)carbamoyl)-6-(4-(isoxazol-4-yl)phenyl)cyclohexane-1-carboxylic acid] | 5010 nM |
